According to patent US10485868B2, “Tn vaccine composition and method for alleviating inflammation” (TAIPEI MEDICAL UNIVERSITY, priority 2017, dated 2019):

How the values were obtained:
C57BL/6NCrlBltw mice = assay: Serum anti-Tn antibody titers by ELISA after immunization; format: in vivo; conditions: mice immunized subcutaneously with adjuvant, versus background before immunization
Description: Five-week-old female C57BL/6NCrlBltw mice were subcutaneously immunized with Tn vaccine at a dose of 20 μg or carrier protein (10 μg of mFc(Cys42-Tn)Histag2) in the presence of adjuvant in 100 μl for four times at biweekly intervals and one additional immunization at one week later after the fourth immunization. Blood was withdrawn from facial vein for anti-Tn antibody titer measurement using enzyme-linked immunosorbent assay (ELISA) on days 0, 42, and 49. Four days after the last immunization, mice were exposed to room air (RA) or oxygen-enriched atmosphere (100% O2) for up to 96 hours. Oxygen exposures was carried out in a transparent 60×50×40-cm Plexiglas chamber into which oxygen was continuously delivered at 4 l/min and oxygen levels were monitored with a ProOx Model 110 monitor (NexBiOxy, Hsinchu, Taiwan) and humidity was checked daily and the value was 60-80%. We obtained four study groups as follows: carrier protein+RA (n=6), Tn vaccine+RA (n=6), carrier protein+O2 (n=6), and Tn vaccine+O2 (n=5). Mice were deeply anesthetized with an overdose of isoflurane after 96 hours O2 treatment. […] This washing procedure was repeated two more times for each animal, with the three washes being pooled, and the total volume recorded. […]
GST(Cys6-Tn) was coated on 96-well flat-bottomed plates (Falcon Labware, Lincoln Park, N.J., USA) at a concentration of 1.5 μg/ml. […] Absorbance was read at 410 nm.

NF-κB P65 = assay: Immunohistochemistry of NF-κB in lung; format: in vivo, mice; conditions: hyperoxia group immunized with carrier protein compared with control and Tn-treated hyperoxia groups
Description: After a routine deparaffinization step, heat-induced epitope retrieval was performed by immersing the slides in 0.01 mol/L sodium citrate buffer (pH 6.0). To block the endogenous peroxidase activity and nonspecific antibody binding, sections were first preincubated for 1 hour at room temperature in 0.1 mol/L PBS containing 10% normal goat serum and 0.3% H2O2 before incubating for 20 hours at 4° C. with the rabbit polyclonal anti-NF-κB P65 (1:50 dilution; Abcam Inc., Cambridge, Mass., USA) as primary antibody. The sections were then treated for 1 hour at room temperature with biotinylated goat anti-rabbit IgG (1:200, Vector, Calif., USA). This was followed by reaction with the reagents from an ABC kit (Avidin-Biotin Complex, Vector, Calif., USA) according to the manufacturer's recommendations, and the reaction products were visualized by diaminobenzidine substrate kit (Vector, Calif., USA). All immunostained sections were viewed and photographed by Olympus BX 43.

[1] = test system: human gingival fibroblasts (HGFs); assay: Tn expression in HGFs, immunofluorescent staining with anti-Tn antibody; format: cell-based; conditions: for Tn levels in HGFs, responsiveness to purified cytokine: 0, 10, 30, 100 ng/ml for 24 hours; for Tn levels in HGFs: TNF-α 30 ng/ml
Description: FIG. 6A. Immunohistochemical analysis of Tn antigen in inflammatory tissues (top) and normal tissues (bottom). Tn staining in atherosclerotic aorta (left; labeled Aorta), bronchitis tissue (middle; labeled Bronchi), and periodontitis tissue (right; labeled Gingiva). Brown color represents Tn antigen expression. FIG. 6B. HGFs were treated with conditioned media from U937 cells stimulated with LPS (0, 10, 30 and 100 ng/ml; 24 hours) for 24 hours and then stained with purified rabbit anti-Tn antibody (in red) and DAPI (in blue). FIG. 6C. U937 cells were treated with LPS (0, 10, 30 and 100 ng/ml) for 24 hours, the secretions of TNF-α were analyzed by ELISA. Original magnifications (100×). Scale bar, 50 μm. FIG. 6D. U937 cells were treated with LPS (0, 10, 30 and 100 ng/ml) for 24 hours, the secretions of IL-6 were analyzed by ELISA. Original magnifications (100×). Scale bar, 50 μm. FIG. 6E. U937 cells were treated with LPS (0, 10, 30 and 100 ng/ml) for 24 hours, the secretions of IL-1β were analyzed by ELISA. Original magnifications (100×). Scale bar, 50 μm.
FIGS. 7A and 7B show pro-inflammatory cytokines, TNF-α and IL-6, up-regulates Tn levels in HGFs. FIG. 7A. The effect of pro-inflammatory cytokines on Tn expression in HGFs. HGFs were treated with purified TNF-α, IL-6 and IL-1β at the concentration of 0, 10, 30, and 100 ng/ml for 24 hours and then stained with purified rabbit anti-Tn antibody (in red) and DAPI (in blue). Original magnification (100×); scale bar, 50 μm. FIG. 7B. Time course analysis of Tn expressions in HGFs after TNF-α treatment. HGFs were treated with purified TNF-α at the concentration of 30 ng/ml for 4, 8, 12, 24 and 48 hours and then stained with purified rabbit anti-Tn antibody (in red) and DAPI (in blue) (Magnifications 630×; scale bar, 50 μm). The experiments were repeated at least three times.
(§1) FIG. 9A. Effect of TNF-α and demethylation agents on the methylation level of COSMC gene in HGFs. The comparison of methylation changes is in the HGFs which were treated with or without TNF-α and demethylation agents. The UCSC genome browser illustrated the orientation and the first exon of COSMC (blue bar), GC percent (black scale bar), CpG islands (green bar) and the sequencing region of bisulfite pyrosequencing (COSMC_py02, black bar). […] FIG. 9B. HGFs were co-treated with purified TNF-α and different concentrations of 5-aza-dC (0, 1, 2 and 5 μM) for 24 hours and then immunofluorescent stained with rabbit anti-Tn antibody (in red) and DAPI (in blue). Magnification 630×; Scale bar, 50 μm.

COSMC gene = assay: Bisulfite pyrosequencing of COSMC gene promoter methylation in HGFs; format: cell-based, human
Description: as §1

COSMC = assay: qPCR of COSMC mRNA in HGFs; format: cell-based, human; conditions: 100 ng/ml, 24 hours
Description: (§2) FIG. 8A. Effect of TNF-α and demethylation agents (5-aza-dC) on mRNA expression of COSMC and T-synthase in HGFs. qPCR was used to analyze COSMC and T-synthase mRNA expression in HGFs upon TNF-α and 5-aza-dC treatment. The mRNA expression of COSMC and T-synthase was normalized to GAPDH and statistically analyzed. (*: p<0.05 compared with TNF-α only) Calculations of relative gene expression (normalized to GAPDH reference gene) were performed according to the ΔΔCT method. Fidelity of the PCR reaction was determined by melting temperature analysis. FIG. 8B. Western blotting was used to analyze the protein levels of Cosmc and T-synthase upon 6 and 24 hours of TNF-α treatment. FIG. 8C. and FIG. 8D. HGFs were treated with purified TNF-α for 6 or 24 hours and then immunofluorescent stained with anti-Cosmc (in red) and anti-T-synthase antibodies (in green) and DAPI (in blue). Original magnification (100×); scale bar, 50 μm.

T-synthase = assay: qPCR of T-synthase mRNA in HGFs; format: cell-based, human; conditions: 100 ng/ml, 24 hours
Description: as §2

## Fc fragment-7 repeats of Pro-Cys-Cys-Gly-Cys-Cys-Gly-Cys-Gly-Cys-N-succinimidyl-6-maleimidocaproate [carrier protein]
C57BL/6NCrlBltw mice
  serum anti-Tn antibody titers: low serum Tn antibody titers
C57BL/6NCrlBltw mice; listed as carrier polypeptide
  serum anti-Tn antibody titers: background serum anti-Tn antibody levels
NF-κB P65
  NFκB immunoreactivity in lung: more intense NFκB immunoreactivity

## interleukin-1β [IL-1β]
[1]
  Tn levels in HGFs, responsiveness to purified cytokine: not responsive

## interleukine-6 [IL-6]
[1]
  Tn levels in HGFs, responsiveness to purified cytokine: moderately responsive

## Nc1ncn([C@H]2C[C@H](O)[C@@H](CO)O2)c(=O)n1 [5-aza-dC, reference compound]
[1]; HGFs co-treated with TNF-α and 0, 1, 2, 5 μM for 24 hours
  TNF-α-induced Tn expression: can be suppressed
COSMC gene; HGFs treated with TNF-α and demethylation agent
  TNF-α-induced COSMC gene hypermethylation: can be suppressed

## tumor necrosis factor-α [TNF-α]
[1]
  Tn levels in HGFs, responsiveness to purified cytokine: most responsive
[1]; 8 to 12 hrs
  Tn levels in HGFs: Gradual increase
[1]; 4 hrs
  Tn levels in HGFs: essentially unchanged
[1]; after 24 hours
  Tn levels in HGFs: gradually decreased
[1]; after 48 hours
  Tn levels in HGFs: markedly decreased
COSMC
  COSMC mRNA in HGFs: significantly down-regulated
T-synthase
  T-synthase mRNA level in HGFs: did not significantly alter
COSMC gene; TNF-α treatment of HGFs
  methylation of four CpG sites in the promoter of the COSMC gene: significantly hypermethylated
